From US10912741B2, “Prevention of liver cancer with safranal-based formulations” (United Arab Emirates University, priority 2019, dated 2021)

Experiments:
[1] = test system: caspase-3 and -7 in HepG2 cells; assay: Caspase-3 and -7 assay (Caspase-Glo 3/7); format: cell-based, human; conditions: 1 mM, 48 hours
Description: (§1) HepG2, were cultured in RPMI 1640 medium (HyClone, USA) and 1% of 100 U/ml penicillin and 100 ug/ml streptomycin (Sigma, USA) supplemented with 10% fetal bovine serum (Sigma, USA) at 37° C. in a humidified 5% CO2 atmosphere. Cells were sub-cultured each 4-6 days using trypsin 0.25% (Hyclone, USA).
HepG2 cells were seeded in 96-well plates at the density of 10000 cells/well and grown in 100 uL of complete growth medium. Complete growth medium was replaced by serum-free medium after cells were allowed to attach for 24 hours; after which cells were incubated for at least 12 hours. Cells were incubated for 48 hours after treatment with various concentrations of safranal (1 mM, 0.7 mM, 0.5 mM) prepared from 20 mM stock solution. After incubation period, caspase-3 and -7 activities were measured using Caspase-Glo 3/7 luminescent assay kit according to manufacturer's instruction (Promega, USA).

[2] = test system: caspase-cleaved fragment of cytokeratin18 (M30 CytoDeath); assay: M30 CytoDeath staining of liver sections (early apoptosis); format: in vivo, albino Wistar rats
Description: The experimental hepatocarcinogenesis model was developed according to a protocol by Espandiaria et al. that was adapted for our purposes. To initiate and promote hepatocarcinogenesis, diethylnitrosamine (DEN) and 2-acetylaminofluorene (2-AAF) were used, respectively. For hepatocarcinogenesis initiation in this model, a single DEN dose (200 mg/kg b.wt.) dissolved in saline was injected intraperitoneally. After initiation, all rats underwent one period of 5-days fasting, as mitotic proliferative stimuli. To promote hepatocarcinogenesis, 2-acetylaminofluorene (2-AAF) was introduced in the form of six daily intragastric doses (30 mg/kg in 1% Tween 80); two weeks after DEN treatment.
Safranal at doses of 25 mg/kg by weight (b.wt.) and 50 mg/kg b.wt, was administrated orally to rats. These doses have been reported to suppress chemically-induced oxidative damage in rats. […]
TUNEL assay was performed for the purpose of assessing apoptosis. […] DNA fragmentation, a key indicator of apoptosis, is detected using this kit. […]
For immunohistochemical staining, mounted sections were immersed in sodium citrate buffer (0.1 M, pH 6) and placed in a water bath for 15 minutes to unmask antigen epitopes. […] Ten fields were randomly selected to quantify positive cells, in individual samples (400×). […]

[3] = test system: IL-8 secretion by HepG2 cells; assay: IL-8 ELISA of supernatant of safranal-treated cells; format: cell-based, human; conditions: as early as 6 hrs
Description: as §1
In 100 mm plates, HepG2 cells were seeded at a density of 2×10^4 in complete growth medium. Cells were allowed to attach for 24 hours, after which complete growth medium was replaced by serum-free medium. Cells were treated with safranal at a concentration of 1 mM (20 mM stock). Plates were incubated for 6, 12, 24, and 48 hours in a humidified 5% CO2 atmosphere at 37° C. At indicated times, 1 mL of cell supernatant was obtained from each plate and was stored at −80° C. for further analysis by ELISA. After which whole cell lysates were prepared. Bicinchoninic acid (BCA) assay (Sigma-Aldrich, USA) was used to determine concentration of protein. Thirty μg of protein were loaded onto 10% SDS polyacrylamide electrophoresis gels. […]
Supernatant of safranal-treated cells were used to investigate the effect of safranal on IL-8 secretion level. […] Absorbance was recorded at 450 nm with background subtraction at 570 nm using a microplate reader (Biotek, Winooski, Vt., USA).

[4] = Cell viability assay (CellTiter-Glo); format: cell-based, human; conditions: human, HepG2 cells, 1 mM safranal, read-out: reduction of cell viability
Description: as §1
(§2) HepG2 cells were seeded in 96-well plates at the density of 10000 cells/well and grown in 100 uL of complete growth medium. Complete growth medium was replaced by serum-free medium after cells were allowed to attach for 24 hours; after which cells were incubated for at least 12 hours. Cells were incubated for 24 hours after treatment with various concentrations of safranal (1 mM, 0.3 mM, 0.1 mM, 0.03 mM, 0.01 mM) prepared from 10 mM stock solution. After incubation period, viability of HepG2 cells was assessed using CellTiter-Glo luminescent cell viability assay kit according to manufacturer's instruction (Promega, USA).

HepG2 cells = assay: Cell viability assay (CellTiter-Glo); format: cell-based, human; conditions: 0.01, 0.03, 0.1, 0.3, 1 mM, 24 hours
Description: as §1, §2

[5] = test system: human prostate cancer PC-3 cell lines; conditions: PC-3 cell line, reported in the background; cited from earlier work

In the case of `CC1=C(C=O)C(C)(C)CC=C1` [Safranal, 2,6,6-trimethylcyclohexa-1,3-diene-1-carbaldehyde], the “caspase-3 and -7 activities” value [1] is reported as “significant increase in caspase-3 and -7 activities”, the “number of M30 CytoDeath-positive cells” value ([2]; low/high doses of safranal in animals exposed to DEN, compared to group 3) is reported as “significant increase in the number of both TUNEL- and M30 CytoDeath-positive cells” and the “number of M30 CytoDeath-positive cells” value ([2]; safranal only (group 2), compared to control group) is reported as “did not exhibit a notable change”. For the same molecule, the IL-8 secretion [3] was “dramatic decrease in IL-8 secretion”, the cytotoxicity at 24 h, 1 mM [4] was about 70% and the HepG2 cells viability (HepG2 cells) was “significant dose-dependent reduction”. For the same molecule, the apoptosis [5] was “induce apoptosis”.
